Source: ChEMBL document CHEMBL1201862, “PubChem BioAssay data set” (2004)
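96-well plates; 48 h exposure; 5 concentrations. Endpoints by linear interpolation between flanking doses. Not reached: highest tested concentration assigned. GI50 is the concentration that inhibits growth by half.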 Calls of active or inactive are those of the source. Cut-off read from the data, not from the text of the source: active = GI50 up to about 1.1 µM and inactive = higher.

Experiments:
Experiment in all cases: NCI tumour cell line growth inhibition, 48 h
SN12C = system: SN12C
A498 = system: A498
NCI-H23 = system: NCI-H23
OVCAR-4 = system: OVCAR-4
HOP-62 = system: HOP-62
RPMI-8226 = system: RPMI-8226
U-251 = system: U-251
CCRF-CEM = system: CCRF-CEM
NCI-H226 = system: NCI-H226
KM12 = system: KM12
UACC-62 = system: UACC-62
HCC 2998 = system: HCC 2998
OVCAR-5 = system: OVCAR-5
ACHN = system: ACHN
OVCAR-8 = system: OVCAR-8
SF-295 = system: SF-295
TK-10 = system: TK-10
SW-620 = system: SW-620

Measured: GI50

CSc1nc(NC2OCC(OC(C)=O)C(OC(C)=O)C2OC(C)=O)c(/N=C(\C)C(C)=O)c(=O)n1C (centres undefined)
inactive: SN12C > 100 µM | A498 > 100 µM | NCI-H23 > 100 µM | OVCAR-4 > 100 µM | HOP-62 > 100 µM | RPMI-8226 > 100 µM | U-251 > 100 µM | CCRF-CEM > 100 µM | NCI-H226 > 100 µM | KM12 > 100 µM | UACC-62 > 100 µM | HCC 2998 > 100 µM | OVCAR-5 > 100 µM | ACHN > 100 µM | OVCAR-8 > 100 µM | SF-295 > 100 µM | TK-10 > 100 µM | SW-620 > 100 µM

COC(=O)C(=O)C(C(=O)C(=O)Nc1ccccc1C(N)=O)c1nc2ccc([N+](=O)[O-])cc2nc1O (centres undefined)
inactive: SN12C > 100 µM | A498 > 100 µM | NCI-H23 > 100 µM | OVCAR-4 > 100 µM | HOP-62 > 100 µM | RPMI-8226 > 100 µM | U-251 > 100 µM | CCRF-CEM > 100 µM | NCI-H226 > 100 µM | KM12 > 100 µM | UACC-62 > 100 µM | HCC 2998 > 100 µM | OVCAR-5 > 100 µM | ACHN > 100 µM | OVCAR-8 > 100 µM | SF-295 > 100 µM | TK-10 > 100 µM | SW-620 > 100 µM

COc1cc(C2[C@H]3C(=O)N(c4ccc(Cc5ccc(N6C(=O)[C@@H]7ON(c8ccccc8)C(c8cc(OC)c(OC)c(OC)c8)[C@@H]7C6=O)cc5)cc4)C(=O)[C@H]3ON2c2ccccc2)cc(OC)c1OC (some centres undefined)
inactive: SN12C > 100 µM | A498 > 100 µM | NCI-H23 > 100 µM | OVCAR-4 > 100 µM | HOP-62 > 100 µM | RPMI-8226 > 100 µM | U-251 > 100 µM | CCRF-CEM > 100 µM | NCI-H226 > 100 µM | KM12 > 100 µM | UACC-62 95.3 µM | HCC 2998 > 100 µM | OVCAR-5 > 100 µM | ACHN > 100 µM | OVCAR-8 > 100 µM | SF-295 > 100 µM | TK-10 > 100 µM | SW-620 > 100 µM

CCOC(=O)Cc1nc2ccc3c(c2nc1O)C(=O)c1ccccc1C3=O
inactive: SN12C 23.7 µM | A498 28.4 µM | NCI-H23 40.2 µM | OVCAR-4 46.5 µM | HOP-62 28.2 µM | RPMI-8226 13.6 µM | U-251 48.4 µM | CCRF-CEM 1.95 µM | NCI-H226 80.7 µM | KM12 14.7 µM | UACC-62 34.5 µM | HCC 2998 46.7 µM | OVCAR-5 > 100 µM | ACHN 20.6 µM | OVCAR-8 31.6 µM | TK-10 31.7 µM | SW-620 56 µM

COC(=O)CCC(=O)CC1CC(=O)C2CCCN12 (centres undefined)
inactive: SN12C > 100 µM | A498 > 100 µM | NCI-H23 > 100 µM | OVCAR-4 > 100 µM | HOP-62 > 100 µM | RPMI-8226 > 100 µM | U-251 > 100 µM | CCRF-CEM > 100 µM | NCI-H226 > 100 µM | KM12 > 100 µM | UACC-62 > 100 µM | HCC 2998 > 100 µM | OVCAR-5 > 100 µM | ACHN > 100 µM | OVCAR-8 > 100 µM | SF-295 > 100 µM | TK-10 > 100 µM | SW-620 > 100 µM

Nc1cc2c3c(cccc3c1)C(=O)N(CCN1CCN(CCN3C(=O)c4cccc5cc(N)cc(c45)C3=O)CC1)C2=O
inactive: SN12C > 100 µM | A498 > 100 µM | NCI-H23 > 100 µM | OVCAR-4 > 100 µM | HOP-62 > 100 µM | RPMI-8226 > 100 µM | U-251 > 100 µM | CCRF-CEM > 100 µM | NCI-H226 31.5 µM | KM12 > 100 µM | UACC-62 > 100 µM | HCC 2998 > 100 µM | OVCAR-5 > 100 µM | ACHN > 100 µM | OVCAR-8 74.3 µM | SF-295 97.1 µM | TK-10 > 100 µM | SW-620 38.8 µM

Cc1ccc(Oc2ccc([N+](=O)[O-])cc2[N+](=O)[O-])c(C)c1
inactive: SN12C 41.2 µM | A498 37.9 µM | NCI-H23 28.7 µM | OVCAR-4 32.2 µM | HOP-62 49.2 µM | RPMI-8226 26.5 µM | U-251 34.8 µM | CCRF-CEM 30.1 µM | NCI-H226 44.9 µM | KM12 > 10 µM | UACC-62 45 µM | HCC 2998 > 100 µM | OVCAR-5 82.8 µM | ACHN 47.6 µM | OVCAR-8 59.2 µM | SF-295 49.3 µM | TK-10 96.4 µM | SW-620 47.1 µM

Cn1cnc(S[C@H]2[C@H]3C(=O)C=C4S[C@H]5C[C@]42C2=C(N5)C(=O)c4[nH]cc5c4C2=[N+]3CC5)c1C[C@H](N)C(=O)O
inactive: SN12C 3.56 µM | A498 18.8 µM | NCI-H23 10.7 µM | OVCAR-4 17.1 µM | RPMI-8226 16.7 µM | U-251 17.2 µM | CCRF-CEM 17.1 µM | NCI-H226 19.4 µM | KM12 16.7 µM | UACC-62 15.7 µM | HCC 2998 16.2 µM | OVCAR-5 15.1 µM | ACHN 14.8 µM | OVCAR-8 13.6 µM | SF-295 15.8 µM | TK-10 38.3 µM | SW-620 6.14 µM

CCCN1C(=O)CNC(=O)c2[nH]cnc21
inactive: SN12C > 100 µM | A498 > 100 µM | NCI-H23 > 100 µM | HOP-62 > 100 µM | RPMI-8226 > 100 µM | U-251 > 100 µM | CCRF-CEM > 100 µM | NCI-H226 > 100 µM | KM12 > 100 µM | UACC-62 48.3 µM | HCC 2998 > 100 µM | OVCAR-5 > 100 µM | ACHN > 100 µM | OVCAR-8 > 100 µM | SF-295 > 100 µM | TK-10 > 100 µM | SW-620 > 100 µM

Cc1ccc(S(=O)(=O)NC(=O)C2(Br)S(=O)(=O)OCCOS2(=O)=O)cc1
inactive: SN12C > 100 µM | A498 > 100 µM | NCI-H23 > 100 µM | OVCAR-4 > 100 µM | HOP-62 > 100 µM | RPMI-8226 > 100 µM | U-251 > 100 µM | CCRF-CEM > 100 µM | NCI-H226 > 100 µM | UACC-62 > 100 µM | HCC 2998 > 100 µM | OVCAR-5 > 100 µM | ACHN > 100 µM | OVCAR-8 > 100 µM | TK-10 > 100 µM

COc1ccc(-c2cc(=O)c3c(O)c(OC)c(O)c(OC)c3o2)cc1OC
inactive: SN12C 43.4 µM | A498 36.4 µM | NCI-H23 > 100 µM | OVCAR-4 > 100 µM | HOP-62 44.2 µM | RPMI-8226 46 µM | U-251 49.9 µM | CCRF-CEM 33.6 µM | NCI-H226 22.2 µM | UACC-62 47.4 µM | HCC 2998 > 100 µM | ACHN 33 µM | OVCAR-8 > 100 µM | SF-295 > 100 µM | SW-620 > 100 µM
